The record followed here is patent US12606529B2, “Sulfur and amide tropolone inhibitors of nucleotidyl transferases and uses therefor” (Saint Louis University, priority 2019, dated 2026).

Series [1] deals with C. neoformans var. grubii, KN99. Description: C. neoformans growth inhibition assay (limiting dilution). In kind it is cell-based, Cryptococcus neoformans. The note with it: Cryptococcus neoformans, 48 h, Table 2 amides; 48 h, 35° C., tested 0.19 to 50 μM; read-out: C. neoformans MIC80. How it is done: Cell types used for C. neoformans studies. All inhibition assays were performed with C. neoformans var. grubii, KN99 (serotype A, MAT). Two clinical strains of C. neoformans var. grubii, serotype A, were provided by Tamara Doering and Andre Spec. […] Cells were diluted to OD650 0.001 in YNB-02 02 (0.67% yeast nitrogen base, 0.2% dextrose, pH 7.0 with 50 mM MOPs)+1% DMSO prior to addition to the plates for the inhibition assays.
C. neoformans growth inhibition assays. Compounds were tested in a limiting dilution assay with a starting optical density (at 650 nm) of 0.001 in YNB-02 plus 1% DMSO. Cells plus compound were incubated in 96-well clear round bottom plates covered with a Breath-easy® membrane without shaking for 48 hours at 35° C. Before measuring cell density, plates were shaken on a microtiter plate shaker at 900 rpm for 3 minutes to resuspend cells and optical density was measured at 650 nm. […] Each assay was done in triplicate and all values are the average of two or more independent assays. The data are presented as the average cell density as a percent of DMSO-only treated cells. MICs are reported as the minimal concentration needed to inhibit 80% of C. neoformans growth relative to vehicle-treated controls.

The next series concerns HSV-1. Description: Anti-HSV-1 replication assay (Vero cells, plaque titer). The format is cell-based, herpes simplex virus 1. Particulars: for log reduction at 5 µM / log reduction at 1 µM / log reduction at 0.33 µM: Human alphaherpesvirus 1, Vero, Table 2 amides; for log reduction at 5 µM: compound at 5 μM, read-out: HSV-1 suppression 5 μM; for log reduction at 5 µM / log reduction at 1 µM: values separated by / are repeats; for log reduction at 1 µM: compound at 1 μM, read-out: HSV-1 suppression 1 μM; for log reduction at 0.33 µM: compound at 0.33 μM, read-out: HSV-1 suppression 0.33 μM.

Another series addresses T1, human RNaseH1 (Homo sapiens, UniProt O60930).
T1 sequence (O60930 1-286): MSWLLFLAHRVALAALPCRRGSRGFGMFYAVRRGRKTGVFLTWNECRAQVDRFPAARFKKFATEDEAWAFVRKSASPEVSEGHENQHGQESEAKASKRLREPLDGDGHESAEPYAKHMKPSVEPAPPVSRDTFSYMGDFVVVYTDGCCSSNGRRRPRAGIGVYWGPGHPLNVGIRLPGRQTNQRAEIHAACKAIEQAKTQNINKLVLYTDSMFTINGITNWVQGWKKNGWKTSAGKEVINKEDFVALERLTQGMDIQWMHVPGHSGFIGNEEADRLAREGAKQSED
Description: Biochemical inhibition of human RNaseH1 activity. Particulars: Table 2 amides; read-out: HuRH1 IC50. The protocol: Biochemical inhibition of human RNaseH1 activity. Quantitative inhibition of the human RNaseH1 in the biochemical assays was assessed using a molecular beacon assay as described previously (Edwards et al., 2017). Recombinant human RNaseH 1 (0.3 μg) was incubated with 100 nM RNA:DNA substrate, 50 mM HEPES pH 8.0, 100 mM NaCl, 2 mM Tris(2-carboxyethyl)phosphine hydrochloride (TCEP), 0.05% Tween20, 5 units of RNaseOut, test compounds (0 to 500 μM), and 5% DMSO in a 100 μL reaction volume. The substrate was formed by annealing a complementary RNA oligonucleotide to a hairpin DNA oligonucleotide to hold the hairpin DNA oligonucleotide in an open conformation. The DNA oligonucleotide has a 5′ fluorescein reporter and a 3′ black hole quencher. When the RNA is degraded from the substrate the DNA oligonucleotide closes to form a hairpin structure, decreasing in signal intensity. Reactions were initiated with 5 mM MgCl2 and fluorescence was read using a Synergy HTS multi-mode plate reader at 37° C. Alternatively, the HBV RNaseH version used was MBP-HRHgtCΔ5, a genotype C isolate which lacks the C-terminal 35 amino acids of the HBV RNaseH domain that are predicted to be unstructured. Quantitative inhibition of the human RNaseH1 in biochemical assays was assessed using a FRET-based RNaseH assay under conditions previously reported for an RNaseH molecular beacon assay (Edwards et al., 2017). […] Cleavage of the RNA strand released the fluorescein from quenching, increasing fluorescence. Reactions were monitored for 90 min at 37° C. in a plate reader and initial reaction rates were calculated. Reactions contained escalating concentrations of the compounds.

Another series in a line: in vitro. The note with it: human, HepDES19 cells.

Values after ≈ are worked out from the molar mass of the structure shown.

Description for in vitro: Cells used for toxicity and HBV studies. […] Cells were maintained in Dulbecco's modified Eagle's medium (DMEM)/F12 media supplemented with 10% fetal bovine serum (FBS) and 1% penicillin/streptomycin (P/S) with 1 μg/mL tetracycline. Synchronized expression of HBV pgRNA was induced by removing tetracycline from the culture medium.
Cytotoxicity Assays. Qualitative assessments of cytotoxicity were done visually by inspecting the cells in the primary screening assays. […] The next day the compounds were added at 0.78 to 100 μM in a final concentration of 1% (v/v) DMSO, and the cells were incubated for 24 hours under conditions identical to those employed for the viral replication inhibition assays. Mitochondrial toxicity was measured by incubating the cells with 0.25 mg/mL thiazolyl blue tetrazolium bromide (MTT, SigmaAldrich Chemical Co.), the cultures were incubated for 60 mM, metabolites were solubilized in acidic isopropanol, and absorbance was read at 570 nm. CC50 values were calculated by non-linear curve fitting using GraphPad Prism using the three-parameter variable-response log(inhibitor)-versus-response algorithm with the bottom value set to zero.

As usually defined, the MIC80 is an inhibitory concentration at the 80% level, which refers to growth in some studies and to a panel of isolates in others. In general, IC50 refers to the point on the concentration scale where inhibition reaches its midpoint. One may read the CC50 as the concentration at which the toxic effect on the cells reaches its halfway point. High values mean better tolerance by the cells, low ones harm at low concentration. Regarding `Cc1cc(O)c(=O)c(O)cc1C(=O)NCc1ccccc1` [compound 388], the MIC80 in series [1] came out at 9 µM (≈ 2.57 µg/mL). Moreover, the log reduction at 5 µM in the series with HSV-1 turned out to be 0.05. In addition, the half-maximal inhibitory concentration (IC50) at human RNaseH1 was found to be 166 ± 104 µM. For the same compound, the CC50 at 24 h in the series “in vitro” (CC50 (μM), Table 2 amides, MTT) came to 19.8 ± 3 µM.

For `Cc1cc(O)c(=O)c(O)cc1C(=O)Nc1ccccc1` [compound 389], the MIC80 in series [1] was determined as 5.3 µM (≈ 1.44 µg/mL). In addition, in the series on HSV-1, the log reduction at 5 µM was found to be 0.43. Besides, the IC50 on human RNaseH1 turned out to be 78.4 ± 47.2 µM. Moreover, the CC50 at 24 h in the series “in vitro” (CC50 (μM), Table 2 amides, MTT) is 21.2 ± 9.5 µM; in “in vitro” (CC50), greater than 20 µM.

For the compound `Cc1cc(O)c(=O)c(O)cc1C(=O)NCc1ccc(-c2ccccc2)cc1` [compound 539], the MIC80 in series [1] came out at 4.5 µM (≈ 1.63 µg/mL). In addition, in the series on HSV-1 (5 μM, plaque forming units (PFU)/ml), the “Reduction of HSV-1 titers / suppression of HSV-1 replication at 5 μM” value was “more than 5 log10”. In addition, in the series on HSV-1, the log reduction at 1 µM amounted to 0.52 and the log reduction at 5 µM is 5.3. Further, on human RNaseH1, the IC50 was determined as 50 ± 9 µM. In the series “in vitro” (CC50 (μM), Table 2 amides, MTT), the CC50 at 24 h is 3.6 ± 1.8 µM. In “in vitro” (CC50), this compound gave a CC50 at 24 h of 1.8 µM.

Take `Cc1cc(O)c(=O)c(O)cc1C(=O)NCCCc1ccccc1` [compound 708]: in series [1], the MIC80 is 18 µM (≈ 5.64 µg/mL). Further, the log reduction at 5 µM in the series with HSV-1 amounted to 0.04. In addition, on human RNaseH1, the IC50 worked out at 267 ± 11.7 µM. In “in vitro” (CC50 (μM), Table 2 amides, MTT), this compound yielded a CC50 at 24 h of 22.6 ± 12.8 µM.

As to `Cc1cc(O)c(=O)c(O)cc1C(=O)N1CCS(=O)(=O)C1` [compound 709], the MIC80 in series [1] came out at 50 µM (≈ 15 µg/mL). In addition, the log reduction at 5 µM in the series on HSV-1 was -0.27. For the same compound, the IC50 on human RNaseH1 was determined as 84.8 ± 6.7 µM. This compound also gave a CC50 at 24 h in “in vitro” (CC50 (μM), Table 2 amides, MTT) of 19.5 ± 6.7 µM.

Turning to `COC(=O)[C@@H](NC(=O)c1cc(O)c(=O)c(O)cc1C)C(C)C` [compound 793], in series [1], the MIC80 is 18 µM (≈ 5.57 µg/mL). The IC50 on human RNaseH1 turned out to be 178 ± 46.6 µM. Further, it took 18.3 ± 9.8 µM to reach half-maximal cytotoxicity in the series “in vitro” (CC50 (μM), Table 2 amides, MTT) (CC50 at 24 h).

Turning to `COC(=O)[C@H](CC(C)C)NC(=O)c1cc(O)c(=O)c(O)cc1C` [compound 794], the MIC80 in series [1] is 9 µM (≈ 2.91 µg/mL). Further, the 50% inhibitory concentration (IC50) at human RNaseH1 was found to be 48.1 ± 15.4 µM. Moreover, in “in vitro” (CC50 (μM), Table 2 amides, MTT), it took 14.7 ± 9.6 µM to reach half-maximal cytotoxicity (CC50 at 24 h).

For `COC(=O)[C@H](Cc1ccccc1)NC(=O)c1cc(O)c(=O)c(O)cc1C` [compound 795], the MIC80 in series [1] is 9 µM (≈ 3.22 µg/mL). On human RNaseH1, the concentration for half-maximal inhibition (IC50) is 43.5 ± 14.8 µM. For the same compound, in “in vitro” (CC50 (μM), Table 2 amides, MTT), the midpoint of cytotoxicity, the CC50 at 24 h, lay at 12.7 ± 5.5 µM.

Regarding `COC(=O)[C@H](Cc1c[nH]c2ccccc12)NC(=O)c1cc(O)c(=O)c(O)cc1C` [compound 797], the MIC80 in series [1] turned out to be 9 µM (≈ 3.57 µg/mL). Moreover, the IC50 on human RNaseH1 is 44 ± 27.1 µM. In the series “in vitro” (CC50 (μM), Table 2 amides, MTT), this compound showed a CC50 at 24 h of 13.9 ± 13.3 µM.

On to `Cc1cc(O)c(=O)c(O)cc1C(=O)Nc1ccc(Cc2ccccc2)cc1` [compound 798], for which, in series [1], the MIC80 turned out to be 1.2 µM (≈ 0.434 µg/mL). Also, in the series on HSV-1, the log reduction at 0.33 µM was -0.0103, the log reduction at 1 µM was found to be 2.32 and the log reduction at 5 µM was determined as 4.39. Besides, the IC50 on human RNaseH1 is 467 µM. Also, the CC50 at 24 h in the series “in vitro” (CC50 (μM), Table 2 amides, MTT) is 3.3 ± 1.8 µM. In addition, in “in vitro” (CC50), the midpoint of cytotoxicity, the CC50 at 24 h, lay at 3.3 µM.

Consider `Cc1cc(O)c(=O)c(O)cc1C(=O)Nc1cccc(Cc2ccccc2)c1` [compound 799], for which the MIC80 in series [1] was 2 µM (≈ 0.723 µg/mL). Also, in the series on HSV-1, the log reduction at 0.33 µM worked out at 0.0848, the log reduction at 1 µM amounted to 0.411 and the log reduction at 5 µM amounted to 3.88. The IC50 on human RNaseH1 worked out at 713 ± 496 µM. The CC50 at 24 h in “in vitro” (CC50 (μM), Table 2 amides, MTT) was 5.3 ± 3.1 µM.

As to `Cc1cc(O)c(=O)c(O)cc1C(=O)NCc1cccs1` [compound 801], in series [1], the MIC80 was 50 µM (≈ 14.6 µg/mL). Moreover, the half-inhibitory concentration (IC50) at human RNaseH1 worked out at 833 ± 289 µM. Moreover, in “in vitro” (CC50 (μM), Table 2 amides, MTT), the CC50 at 24 h came out at 61.1 ± 22.8 µM.

Turning to `CCS(=O)(=O)N1CCN(C(=O)c2cc(O)c(=O)c(O)cc2C)CC1` [compound 802], the MIC80 in series [1] is 50 µM (≈ 17.8 µg/mL). Besides, at human RNaseH1, the 50% inhibitory concentration (IC50) was determined as 76.5 ± 46.9 µM. In addition, the midpoint of cytotoxicity in the series “in vitro” (CC50 (μM), Table 2 amides, MTT), the CC50 at 24 h, lay at 27.1 ± 31.2 µM.

For the compound `Cc1cc(O)c(=O)c(O)cc1C(=O)N1CCN(c2oc(-c3ccco3)nc2C#N)CC1` [compound 803], in series [1], the MIC80 stood at 32 µM (≈ 13.5 µg/mL). On human RNaseH1, the IC50 is 36.3 ± 4 µM. This compound also came in with a CC50 at 24 h in the series “in vitro” (CC50 (μM), Table 2 amides, MTT) of 23.7 ± 22.9 µM.
